Values quoted from earlier work as cited in patent US6737430B2, “Mutual prodrug of amlodipine and atorvastatin” (Pfizer, Inc., priority 2000, dated 2004).

What was measured:
calcium channel = conditions: cited from earlier work
[1] = tested on: smooth muscle cell migration; conditions: cited from earlier work

CCOC(=O)C1=C(COCCN)NC(C)=C(C(=O)OC)[C@H]1c1ccccc1Cl (single isomer, unassigned) [(R) enantiomer, R(−)-amlodipine]
calcium channel blocking activity (calcium channel): little or no calcium channel blocking activity
inhibition of smooth muscle cell migration [1]: potent inhibitor of smooth muscle cell migration
